In BindingDB's records for doi:10.1021/acs.jmedchem.0c01420 (Ochanomizu University, 2021):

Experiment: Agonist activity at VDR in human HL-60 cells assessed as induction of cell differentiation of promyelocytes to monocytes after 4 days by NBT reduction assay

| Compound | EC50 |
| --- | --- |
| C[C@H](CCC(=O)O)[C@H]1CC[C@H]2[C@@H]3CC[C@@H]4C[C@@H](CC(C)(C)O)CC[C@]4(C)[C@H]3CC[C@]12C | 36 nM |
| C[C@H](CCC(=O)O)[C@H]1CC[C@H]2[C@@H]3CC[C@@H]4C[C@H](CC(C)(C)O)CC[C@]4(C)[C@H]3CC[C@]12C | 0.53 nM |
